Broadly, the EC50 is the midpoint of the concentration-response curve. High values mean a need for much substance, low ones an effect from little substance.

The structures appear in SMILES notation.

For the assay, the target named is Glycogen synthase kinase-3 beta (Homo sapiens, UniProt P49841). Description: GSK3beta kinase inhibitor potency, dose response, biochemical, luminescence, cell-free homogeneous, retest (AID 434954).
Chain of Glycogen synthase kinase-3 beta (P49841 whole entry): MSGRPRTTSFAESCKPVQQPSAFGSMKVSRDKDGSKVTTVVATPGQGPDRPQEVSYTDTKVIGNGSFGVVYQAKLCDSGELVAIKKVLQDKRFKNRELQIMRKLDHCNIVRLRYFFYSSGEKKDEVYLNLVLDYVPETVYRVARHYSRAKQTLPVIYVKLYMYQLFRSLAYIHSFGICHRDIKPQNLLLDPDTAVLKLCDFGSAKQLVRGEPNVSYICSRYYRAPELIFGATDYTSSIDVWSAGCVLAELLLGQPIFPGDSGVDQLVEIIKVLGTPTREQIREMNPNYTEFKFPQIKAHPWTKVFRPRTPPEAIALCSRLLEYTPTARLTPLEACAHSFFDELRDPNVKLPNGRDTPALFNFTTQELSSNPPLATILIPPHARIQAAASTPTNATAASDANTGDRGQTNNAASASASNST
As for `O=C(Nc1sccc1C(=O)N1CCOCC1)c1cccnc1` [N-[3-[4-morpholinyl(oxo)methyl]-2-thiophenyl]-3-pyridinecarboxamide], a half-maximal response (EC50) required 29.2 µM.
Then `Nc1nonc1-n1nnc(C(=O)NN=Cc2cccc(F)c2)c1CN1CCCC1` [MLS000948239], with > 300 µM.
As for `CCOC(=O)c1c(C)[nH]c(C)c1C(=O)CN1C(=O)NC(CC(C)C)C1=O` (stereo not drawn) [ethyl 2,5-dimethyl-4-[2-[4-(2-methylpropyl)-2,5-dioxoimidazolidin-1-yl]acetyl]-1H-pyrrole-3-carboxylate], the concentration giving a half-maximal response (EC50) is > 300 µM.
Turning to `COc1ccc(-c2nn(CCC(=O)O)cc2C=NNC(N)=S)cc1` [3-[4-[(carbamothioylhydrazinylidene)methyl]-3-(4-methoxyphenyl)-1-pyrazolyl]propanoic acid], the concentration for a half-maximal effect (EC50) was > 300 µM.
Compound `O=C(CSCCc1ccccn1)Nc1ccc(Br)cn1` gave an EC50 of 17.7 µM.
As for `CC1CN(c2nc(Nc3ccccc3)nc(N)c2[N+](=O)[O-])CC(C)O1` (stereo not drawn), the figure is 35.9 µM; as for `COc1ccccc1Nc1nc(NCCCN(C)C)nc(N)c1[N+](=O)[O-]` [N2-[3-(dimethylamino)propyl]-N4-(2-methoxyphenyl)-5-nitro-pyrimidine-2,4,6-triamine], 2.13 µM; as for `CC1(C)CC(=O)C=C(NCc2ccccc2)C1` [SMR000186728], > 300 µM.
Then `CN1CCN(CCCNC(=O)Nc2ccc([N+](=O)[O-])cc2)CC1` [N-[3-(4-methylpiperazin-1-yl)propyl]-N'-(4-nitrophenyl)urea], with > 300 µM; and `Nc1nc(Cl)nc2c1ncn2C1OC(CO)C(O)C1O` (stereo not drawn), with > 300 µM; and `Nc1ncc([N+](=O)[O-])c(N2CCCCCC2)n1` [MLS001174873], with 18.4 µM.
`COc1ccc(C2c3c(n[nH]c3C)N=C3CC(C)(C)CC(=O)C32)cc1` (stereo not drawn) came in with a 50% effective concentration (EC50) of 28.3 µM. This EC50 is about 1.5-fold higher than that of the compound before.
In turn, `COc1ccc(Nc2nc(N)c([N+](=O)[O-])c(NCCO)n2)cc1` [2-[6-Amino-2-(4-methoxy-phenylamino)-5-nitro-pyrimidin-4-ylamino]-ethanol] displayed an EC50 of 2.6 µM.
`COc1ccc(OCCN(C)Cc2ccccc2)cc1`: the EC50 was > 300 µM.
Then `Cn1c(=O)c2[nH]c(CN(Cc3ccccc3)Cc3ccccc3)nc2n(C)c1=O` [MLS000081398], with > 300 µM; and `Cc1ccc(Nc2nc(NCC3CCCO3)nc(N)c2[N+](=O)[O-])cc1` (stereo not drawn), with 4.95 µM; and `COc1ccc(OC)c(C(=O)c2coc3ccc(O)cc23)c1` [(2,5-dimethoxyphenyl)-(5-hydroxy-1-benzofuran-3-yl)methanone], with > 300 µM.
As for `CCOC(=O)c1cnc2ccc(Cl)cc2c1Nc1ccc(S(=O)(=O)Nc2ncccn2)cc1` [ethyl 6-chloro-4-[4-(pyrimidin-2-ylsulfamoyl)anilino]quinoline-3-carboxylate], the figure is 108 µM.
Then `c1ccc(Cn2c(-c3ccco3)nc3nc4ccccc4nc32)cc1` [3-benzyl-2-(furan-2-yl)imidazo[4,5-b]quinoxaline], with > 300 µM; and `NS(=O)(=O)c1ccc(N/N=C2\C(=O)Nc3ccc(Br)cc32)cc1` [SMR000592222], with > 300 µM.
For the compound `O=C(N1CCN(c2ccccc2F)CC1)C12CC3CC(CC(C3)C1)C2` [SMR000071700], the half-maximal effective concentration (EC50) is > 300 µM.
Then `c1ccc(OCCCn2nnc(-c3ccncc3)n2)cc1` [SMR000008082], with 20.3 µM.
As for `COc1ccc(C2C(C(C)=O)C(=O)C(=O)N2c2nccs2)c(OC)c1` (stereo not drawn) [3-acetyl-2-(2,4-dimethoxyphenyl)-4-hydroxy-1-(1,3-thiazol-2-yl)-2H-pyrrol-5-one], the figure is > 300 µM.
Then `COc1ccccc1/C=C/C=C1\Oc2c(ccc(O)c2CN(C)C)C1=O` [(2Z)-7-[(dimethylamino)methyl]-6-hydroxy-2-[(E)-3-(2-methoxyphenyl)prop-2-enylidene]-1-benzofuran-3-one], with 33.8 µM.
The compound `CSc1nc(NCc2ccco2)c2c3c(sc2n1)CN(C)CC3` [MLS000082597] returned an EC50 of 30.2 µM. This EC50 and that of the compound before are within 1.5-fold of each other.
As for `Cc1ccc(-c2nnc(SCc3ccccc3F)o2)cc1` [2-[(2-fluorobenzyl)thio]-5-(4-methylphenyl)-1,3,4-oxadiazole], the EC50 was > 300 µM.
Consider `CCOC(=O)c1c(C)[nH]c(C(=O)CSc2nccc(C)n2)c1C` [MLS000391683], for which the EC50 is > 300 µM.
With `O=C(O)c1ccccc1Nc1ccnc(Cl)n1` [2-[(2-chloro-4-pyrimidinyl)amino]benzoic acid], the half-maximal effective concentration (EC50) is > 300 µM.
Then `COc1ccccc1NC(=O)C(C)Nc1ccc(C)c(Cl)c1` (stereo not drawn), with > 300 µM; and `O=[N+]([O-])c1ccccc1Oc1ccc(Cl)c2cccnc12` [MLS000721853], with > 300 µM.
Take `Cc1cc2c(s1)NC(=O)CN=C2c1cccs1` [MLS000072965]: it took 33.1 µM to reach a half-maximal effect (EC50). That is a double-digit micromolar value.
On to `CCSc1nc(N)c2c3c(sc2n1)CN(C)CC3` [MLS000082600], for which the concentration giving a half-maximal response (EC50) is > 300 µM.
As for `O=C(O)Cn1c(=O)c2c3c(sc2n(Cc2ccccc2F)c1=O)CCCC3` [SMR000544593], the figure is > 300 µM.
With `COc1ccc(C(=O)c2sc(Nc3ccc(NC(C)=O)cc3)nc2C)cc1` [N-{4-[5-(4-Methoxy-benzoyl)-4-methyl-thiazol-2-ylamino]-phenyl}-acetamide], the EC50 is > 300 µM.
Take `CCOC(=O)c1c(-c2ccc(C)o2)csc1N`: the concentration for a half-maximal effect (EC50) was > 300 µM.
Then `CCc1nn(CC(=O)NCCN2CCN(C)CC2)c(=O)c2cc3c(OC)cccc3n12` [MLS001110984], with > 300 µM; and `COc1cccc(C(=O)Nc2ccc(C(=O)NCC(C)C)cc2)c1` [SMR000292523], with > 300 µM.
Then `N#Cc1ccccc1CSc1nnc(-c2ccncc2)o1` [2-[(5-pyridin-4-yl-1,3,4-oxadiazol-2-yl)sulfanylmethyl]benzenecarbonitrile], with 20.7 µM; and `COc1nc(NCCN2CCOCC2)nc(Nc2ccc([N+](=O)[O-])cc2)n1`, with > 300 µM.
As to `CCc1nn(CC(=O)NCCC(C)C)c(=O)c2cc3c(OC)cccc3n12` [2-(4-ethyl-9-methoxy-1-oxo-[1,2,4]triazino[4,5-a]indol-2-yl)-N-(3-methylbutyl)acetamide], the EC50 was > 300 µM.
Then `COc1ccc(OC)c(C(=O)c2coc3ccc(OC)cc23)c1` [MLS000108671], with > 300 µM.
As to `CCOC(=O)c1nnn(-c2nonc2N)c1-c1ccc(C)cc1` [ethyl 1-(4-amino-1,2,5-oxadiazol-3-yl)-5-(4-methylphenyl)triazole-4-carboxylate], the EC50 came out at 51 µM.
As for `Cc1cc(NC(=O)CSc2nnc(C3CC3)n2Cc2ccccc2)no1` [MLS000566701], the figure is > 300 µM.
Then `O=C(NN=Cc1ccco1)Nc1cccc(Cl)c1` [SMR000203570], with 38.1 µM; and `O=C(Nc1cccc(F)c1)Nc1ccccn1` [MLS000111709], with > 300 µM; and `CC[n+]1c(CC=Nc2ccccc2)sc2ccccc21`, with > 300 µM.
With `Cc1cccc(/C=C2/Sc3ccc(C(=O)NCCCN4CCOCC4)cc3NC2=O)c1` [(2E)-2-[(3-methylphenyl)methylidene]-N-(3-morpholin-4-ylpropyl)-3-oxidanylidene-4H-1,4-benzothiazine-6-carboxamide], the concentration giving a half-maximal response (EC50) was > 300 µM.
`O=C(Nc1ccccn1)C(=O)Nc1ccccn1` [N,N'-dipyridin-2-ylethanediamide]: the EC50 is > 300 µM.

The values above are taken from BindingDB's records for doi:10.7270/Q2TX3CTT (Broad Institute, 2010).
